Test: xn = mol fraction of the nth substance listed
Conditions: 298 K, Liquid

ClCCCl [1,2-dichloroethane] + CC(=O)N(C)C
mass density [kg/m3]
Conditions | x2 = 0.0977 | x2 = 0.2003 | x2 = 0.2988 | x2 = 0.4022 | x2 = 0.4999 | x2 = 0.6007 | x2 = 0.7008 | x2 = 0.7988 | x2 = 0.8997
10000 kPa | – | – | – | – | 1084.8 | 1054.2 | 1024.8 | 996.9 | 969.4
10500 kPa | 1219.4 | 1183.3 | 1149.8 | 1116.1 | 1085.2 | 1054.5 | 1025.2 | 997.2 | 969.6
11000 kPa | 1219.9 | 1183.7 | 1150.3 | 1116.5 | 1085.6 | 1054.8 | 1025.5 | 997.6 | 970
11500 kPa | 1220.3 | 1184.2 | 1150.7 | 1116.9 | 1085.9 | 1055.2 | 1025.8 | 997.9 | 970.3
11900 kPa | – | – | – | – | 1086.2 | – | – | – | –
12000 kPa | 1220.8 | 1184.6 | 1151.1 | 1117.2 | – | 1055.5 | 1026.1 | 998.2 | 970.6
12500 kPa | 1221.2 | 1185 | 1151.5 | 1117.6 | 1086.6 | 1055.8 | 1026.5 | 998.5 | 970.9
13000 kPa | 1221.6 | 1185.4 | 1151.9 | 1118 | 1087 | 1056.2 | 1026.8 | 998.8 | 971.2
13500 kPa | 1222 | 1185.8 | 1152.2 | 1118.4 | 1087.3 | 1056.5 | 1027.1 | 999.2 | 971.5
14000 kPa | 1222.4 | 1186.3 | 1152.6 | 1118.7 | 1087.7 | 1056.8 | 1027.4 | 999.4 | 971.7
14500 kPa | 1222.9 | 1186.7 | 1153 | 1119.1 | 1088 | 1057.1 | 1027.8 | 999.7 | 972
14900 kPa | 1223.2 | – | – | – | – | – | – | – | –
15000 kPa | – | 1187.1 | 1153.4 | 1119.4 | 1088.4 | 1057.5 | 1028 | 1000 | 972.3
15500 kPa | 1223.7 | 1187.4 | 1153.8 | 1119.8 | 1088.7 | 1057.8 | 1028.4 | 1000.4 | 972.6
15900 kPa | – | – | – | 1120.1 | – | – | – | – | –
16000 kPa | 1224.1 | 1187.8 | 1154.2 | – | 1089.1 | 1058.1 | 1028.7 | 1000.6 | 972.9
16400 kPa | 1224.5 | – | – | – | – | – | – | – | –
16500 kPa | – | 1188.2 | 1154.6 | 1120.5 | 1089.4 | 1058.4 | 1029 | 1001 | 973.2
16900 kPa | – | – | – | – | – | – | 1029.3 | – | –
17000 kPa | 1224.9 | 1188.6 | 1155 | 1120.9 | 1089.8 | 1058.8 | – | 1001.3 | 973.4
17500 kPa | 1225.4 | 1189.2 | 1155.3 | 1121.3 | 1090.1 | 1059.2 | 1029.7 | 1001.5 | 973.7
17900 kPa | – | – | – | 1121.5 | – | – | – | – | –
18000 kPa | 1225.8 | 1189.5 | 1155.7 | – | 1090.4 | 1059.5 | 1029.9 | 1001.8 | 974
18500 kPa | 1226.1 | 1189.8 | 1156.1 | 1122 | 1090.8 | 1059.8 | 1030.2 | 1002.1 | 974.3
19000 kPa | 1226.6 | 1190.3 | 1156.5 | 1122.4 | 1091.2 | 1060.2 | 1030.6 | 1002.5 | 974.7
19500 kPa | 1227 | 1190.6 | 1156.8 | 1122.7 | 1091.5 | 1060.5 | 1030.9 | 1002.7 | 975
20000 kPa | 1227.5 | – | 1157.2 | 1123.1 | 1091.9 | 1060.8 | 1031.2 | 1003 | –
20100 kPa | – | 1191.1 | – | – | – | – | – | – | 975.4
